Data set [1] concerns the target T1, CYP3A4/5 (Homo sapiens, UniProt P08684+P20815). Put plainly: Time dependent inhibition of CYP3A4/5 (unknown origin) at 30 uM measured after 30 mins relative to control. In kind it is protein assay. The conditions noted are these: read-out: TDI.
The target of data set [2] is T1, CYP3A4/5. Briefly: Time dependent inhibition of CYP3A4/5 (unknown origin) assessed as remaining activity at 30 uM relative to control. The conditions noted are these: read-out: Activity. In kind it is protein assay.
Data set [3] addresses Epidermal growth factor receptor (Homo sapiens, UniProt P00533, C797S/L858R/T790M). Briefly: Binding affinity to EGFR L858R/T790M/C797S mutant (unknown origin) assessed as inhibition constant incubated for 30 mins in presence of ATP by Real-time fluorescence based analysis.
Data set [4] concerns the target Epidermal growth factor receptor (Homo sapiens, UniProt P00533). Put plainly: Binding affinity to wild type EGFR (unknown origin) assessed as inhibition constant incubated for 30 mins in presence of ATP by Real-time fluorescence based analysis.
A further data set in a line: physchem. The conditions noted are these: octanol/water.
Data set [5] has as its target T1, CYP3A4/5. Briefly: Time dependent inhibition of CYP3A4/5 (unknown origin) in presence of NADPH. In kind it is ADME, protein assay.
Data set [6] concerns the target T1, CYP3A4/5. Put plainly: Time dependent inhibition of CYP3A4/5 (unknown origin) in absence of NADPH. In kind it is ADME, protein assay.
Data set [7] addresses T1, CYP3A4/5. Briefly: Reversible inhibition of CYP3A4/5 (unknown origin) at 30 uM relative to control. It counts as ADME, protein assay.
Data set [8] has as its target T1, CYP3A4/5. Put plainly: Time dependent inhibition of CYP3A4/5 (unknown origin) at 30 uM measured after 10 mins relative to control. The following applies: read-out: TDI. In kind it is ADME, protein assay.

SMILES strings stand for the structures. Where only a bound is given, the exact number is not on record here.

Chain of Epidermal growth factor receptor (Homo sapiens, UniProt P00533) (P00533 whole entry): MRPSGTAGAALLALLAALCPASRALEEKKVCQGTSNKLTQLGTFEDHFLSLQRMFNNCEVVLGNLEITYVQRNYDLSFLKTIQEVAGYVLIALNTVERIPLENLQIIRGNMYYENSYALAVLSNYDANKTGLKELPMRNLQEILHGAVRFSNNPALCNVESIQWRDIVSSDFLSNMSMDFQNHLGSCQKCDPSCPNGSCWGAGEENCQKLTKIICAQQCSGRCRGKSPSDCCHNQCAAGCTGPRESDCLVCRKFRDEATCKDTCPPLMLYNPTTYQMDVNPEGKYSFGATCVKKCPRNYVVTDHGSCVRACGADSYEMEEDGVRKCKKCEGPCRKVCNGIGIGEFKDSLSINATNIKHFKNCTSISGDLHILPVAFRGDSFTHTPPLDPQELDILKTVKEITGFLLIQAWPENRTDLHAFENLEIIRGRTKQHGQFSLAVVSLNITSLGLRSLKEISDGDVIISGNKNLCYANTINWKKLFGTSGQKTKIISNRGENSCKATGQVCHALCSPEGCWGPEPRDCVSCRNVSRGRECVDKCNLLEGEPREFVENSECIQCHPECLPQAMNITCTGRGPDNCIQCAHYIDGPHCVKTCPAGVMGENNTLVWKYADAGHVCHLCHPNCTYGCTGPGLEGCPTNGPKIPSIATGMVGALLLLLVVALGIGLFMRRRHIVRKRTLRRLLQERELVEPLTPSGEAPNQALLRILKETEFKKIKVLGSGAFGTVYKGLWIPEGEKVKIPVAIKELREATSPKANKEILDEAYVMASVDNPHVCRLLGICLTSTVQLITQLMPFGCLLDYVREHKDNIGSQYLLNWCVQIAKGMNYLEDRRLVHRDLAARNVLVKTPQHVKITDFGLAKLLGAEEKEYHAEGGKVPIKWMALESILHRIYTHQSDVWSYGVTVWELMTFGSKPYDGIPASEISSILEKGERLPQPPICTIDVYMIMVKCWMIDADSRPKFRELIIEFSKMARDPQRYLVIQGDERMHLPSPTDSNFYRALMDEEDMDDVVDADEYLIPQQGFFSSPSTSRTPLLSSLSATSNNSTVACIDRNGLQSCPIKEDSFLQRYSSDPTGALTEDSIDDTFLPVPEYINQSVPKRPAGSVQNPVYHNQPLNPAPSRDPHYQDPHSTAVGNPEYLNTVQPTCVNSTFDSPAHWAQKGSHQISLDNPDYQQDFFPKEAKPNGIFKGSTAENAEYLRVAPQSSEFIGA
Chain of Epidermal growth factor receptor (Homo sapiens, UniProt P00533, C797S/L858R/T790M) (P00533 25-1210 T790M/C797S/L858R limits assumed): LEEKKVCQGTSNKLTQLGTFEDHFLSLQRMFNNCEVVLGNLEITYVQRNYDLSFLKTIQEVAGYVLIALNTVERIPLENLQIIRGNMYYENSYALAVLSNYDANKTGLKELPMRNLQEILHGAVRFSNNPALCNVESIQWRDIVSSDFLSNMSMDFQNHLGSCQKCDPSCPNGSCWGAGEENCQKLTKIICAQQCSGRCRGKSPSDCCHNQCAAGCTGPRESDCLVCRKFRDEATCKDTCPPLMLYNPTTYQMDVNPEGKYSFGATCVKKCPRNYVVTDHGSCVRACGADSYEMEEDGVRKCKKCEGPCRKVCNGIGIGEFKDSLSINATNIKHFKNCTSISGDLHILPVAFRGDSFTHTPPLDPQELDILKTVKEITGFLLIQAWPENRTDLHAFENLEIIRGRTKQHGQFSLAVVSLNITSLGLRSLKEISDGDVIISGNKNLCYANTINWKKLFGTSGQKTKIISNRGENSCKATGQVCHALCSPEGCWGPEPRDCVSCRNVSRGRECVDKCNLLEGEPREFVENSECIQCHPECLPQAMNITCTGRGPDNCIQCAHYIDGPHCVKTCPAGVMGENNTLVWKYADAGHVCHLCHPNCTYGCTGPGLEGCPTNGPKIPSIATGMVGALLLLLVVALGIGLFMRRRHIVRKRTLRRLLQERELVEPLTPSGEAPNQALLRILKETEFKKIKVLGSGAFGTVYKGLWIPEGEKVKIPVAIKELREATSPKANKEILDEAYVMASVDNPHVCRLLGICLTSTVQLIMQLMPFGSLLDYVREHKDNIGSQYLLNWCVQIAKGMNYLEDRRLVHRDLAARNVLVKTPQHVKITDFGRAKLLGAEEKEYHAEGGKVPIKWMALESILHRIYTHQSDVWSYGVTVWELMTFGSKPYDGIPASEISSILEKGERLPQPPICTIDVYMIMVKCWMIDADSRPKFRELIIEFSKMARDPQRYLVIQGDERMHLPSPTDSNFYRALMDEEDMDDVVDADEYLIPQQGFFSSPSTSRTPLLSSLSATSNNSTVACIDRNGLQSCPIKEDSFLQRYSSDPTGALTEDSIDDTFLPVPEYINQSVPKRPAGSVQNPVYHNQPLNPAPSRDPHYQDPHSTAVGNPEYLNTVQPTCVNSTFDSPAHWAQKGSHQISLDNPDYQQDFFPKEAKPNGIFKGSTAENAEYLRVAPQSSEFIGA

For the compound `CO[C@@H]1CCN(c2nccc(Nc3cc4n(C5CCC6(CC5)OCCO6)c(C#N)cn4n3)n2)C[C@@H]1F`, the inhibition at 0.5 h, 30 µM on CYP3A4/5 [1] turned out to be 50%. For the same compound, the activity at 30 µM on CYP3A4/5 [2] was 78%.

The term Ki denotes a dissociation constant, usually derived from enzyme kinetics or from competition with a known ligand. By logD is commonly meant the decadic logarithm of the distribution of all forms, ionised or not, between an organic phase and buffer at a given pH. Read a low logD as lower lipophilicity. On to `Cc1cn2nc(Nc3ccnc(N4CC[C@@H](O)[C@@H](F)C4)n3)cc2n1C1C2CCCC1C2` (stereo partly drawn), for which the figures for the Ki in [3] and in data set [4] (read-out: Ki) were 0.0099 µM and 1.7 µM, respectively. For the same compound, the logD at 3 h in the data set “physchem” amounted to 3.32.

For the compound `CCc1cn2nc(Nc3ccnc(N4CC[C@@H](OC)[C@@H](F)C4)n3)cc2n1C1CCC2(CC1)OCCO2`, the inhibition at 0.5 h, 30 µM at CYP3A4/5 [1] was 34.9%. On CYP3A4/5 [2], the activity at 30 µM came to 39%.

For `CCNC(=O)c1cn2nc(Nc3ccnc(N4CC[C@@H](OC)[C@@H](F)C4)n3)cc2n1C1CCC2(CC1)OCCO2`, the inhibition at 0.5 h, 30 µM on CYP3A4/5 [1] is 64%. Moreover, at CYP3A4/5 [2], the activity at 30 µM was 98%.

Regarding `CCc1cn2nc(Nc3ccnc(N4CC[C@@H](OC)[C@@H](F)C4)n3)cc2n1[C@H]1CC[C@]2(CCN(C)C2=O)CC1`, the inhibition at 0.5 h, 30 µM on CYP3A4/5 [1] was 55.8%. For the same compound, the activity at 30 µM on CYP3A4/5 [2] stood at 65%.

The term IC50 denotes the midpoint of a concentration-inhibition curve. As to `CO[C@@H]1CCN(c2nccc(Nc3cc4n(C5CCC6(CC5)OCCO6)c(C)cn4n3)n2)C[C@@H]1F`, on CYP3A4/5 [1], the inhibition at 0.5 h, 30 µM is 52.4%. Further, on CYP3A4/5 [2], the activity at 30 µM came to 57%. For the same compound, the IC50 amounted to 156 µM on CYP3A4/5 [5] and 0.82 µM on CYP3A4/5 [6]. Also, at CYP3A4/5 [7], the inhibition at 30 µM turned out to be 66%. The inhibition at 10 min, 30 µM at CYP3A4/5 [8] was found to be 41.2%.

With `CN1CCC2(CCC(n3c(C(F)(F)F)cn4nc(Nc5ccnc(N6CC[C@@H](O)[C@@H](F)C6)n5)cc34)CC2)C1=O` (stereo partly drawn), at CYP3A4/5 [1], the inhibition at 0.5 h, 30 µM came to 34%. The activity at 30 µM at CYP3A4/5 [2] amounted to 86%. Besides, the IC50 on CYP3A4/5 [5] is over 1.4 µM; against CYP3A4/5 [6], 22 µM.

With `CO[C@@H]1CCN(c2nccc(Nc3cc4n(C5CCC6(CC5)OCCO6)c(C(=O)NCC5CCN(C)CC5)cn4n3)n2)C[C@@H]1F`, the inhibition at 0.5 h, 30 µM at CYP3A4/5 [1] amounted to 24%. For the same compound, the activity at 30 µM on CYP3A4/5 [2] is over 99%.

On to `CO[C@@H]1CCN(c2nccc(Nc3cc4n(C5CCC6(CC5)OCCO6)c(C(=O)NCC5CN(C)C5)cn4n3)n2)C[C@@H]1F`, for which, on CYP3A4/5 [1], the inhibition at 0.5 h, 30 µM amounted to 26%. Further, at CYP3A4/5 [2], the activity at 30 µM is over 99%.

For `O[C@@H]1CCN(c2nccc(Nc3cc4n(C5CCC6(CC5)OCCO6)c(C(F)(F)F)cn4n3)n2)C[C@@H]1F`, on CYP3A4/5 [1], the inhibition at 0.5 h, 30 µM is 8.3%. The activity at 30 µM at CYP3A4/5 [2] was 25%. Also, the values for the IC50 on CYP3A4/5 [5] and against CYP3A4/5 [6] were 2.3 µM and 5.7 µM, respectively.

Turning to `COC1CCN(c2nccc(Nc3cc4n(C5CC5)c(C)cn4n3)n2)CC1`, the Ki in data set [3] is 0.95 µM; in [4], “Not_active”. Further, in the data set “physchem”, the logD at 3 h came out at 3.37.

Regarding `COC1CCN(c2nccc(Nc3cc4n(C5CCC(=O)CC5)c(C)cn4n3)n2)CC1`, the results for the Ki in data set [3] and in data set [4] were 0.027 µM and “Not_active”, respectively. The logD at 3 h in the data set “physchem” was 2.27.

On to `COC1CCN(c2nccc(Nc3cc4n(C)c(C)cn4n3)n2)CC1`, for which the values for the Ki in [3] and in data set [4] were 6.1 µM and “Not_active”, respectively. The same compound gave a logD at 3 h in the data set “physchem” of 2.56.
